Earlier results, collected in patent publication US20070043054A1, “Enzyme cofactor combination for supplementing pyruvate dehydrogenase and alpha ketogluterate dehydrogenase complexes” (priority 2004, published 2007).

Legend:
[1] = for stability in aqueous solution: neutral or alkaline solutions

solubility in water	solubility in alkali (alkali)	solubility in organic solvents (organic solvents)	temperature up to which the dry form is stable ([1]; dry form)	SMILES	stability in aqueous solution [1]	stability to dry heat [1]
soluble in water and ethanol	–	–	–	NC(=O)c1cccnc1 [Niacinamide]	stable for a short period when autoclaved	–
very slightly soluble in water	soluble in alkali	insoluble in most organic solvents	–	Cc1cc2nc3c(=O)[nH]c(=O)nc-3n(C[C@H](O)[C@H](O)[C@H](O)CO)c2cc1C [Riboflavin]	stable to oxidizing agents in strong mineral acids and in neutral aqueous solution	stable to dry heat
–	–	–	about 60 °C	O=C(O)c1cccnc1 [niacin]	–	–

SMILES	solubility in water	solubility in alkali (alkali)	solubility in organic solvents (organic solvents)	temperature up to which the dry form is stable ([1]; dry form)	stability in aqueous solution [1]	stability to dry heat [1]
Cc1ncc(C[n+]2csc(CCO)c2C)c(N)n1 [Thiamine]	water-soluble	–	–	–	rapidly broken down in neutral or alkaline solutions	comparatively stable to dry heat
